Source: US6682753B2, “Methods for promoting weight gain using GPE-related compounds” (NeuronZ Limited, priority 2001, dated 2004)

Legend:
[1] = Weight gain in human patient suffering from a head injury, central administration (Examples 2-4); assay type: in vivo; conditions: 14 days
Experimental: GPE in a dose of 10 μg/Kg/day is administered via lateral cerebroventricular injection into the brain of a human patient suffering from a head injury to promote weight gain to normal levels. Alternatively, a GPE analog is administered. Treatment is commenced as soon as possible after the head injury and then for 14 days thereafter.
A GPE analog in a dose of 20 μg/Kg/day is administered via focal injection into the lateral cerebral ventricle of a human patient suffering from a head injury to promote weight gain to normal levels. Alternatively, GPE is administered. Treatment is commenced as soon as possible after the head injury and then for 14 days thereafter.
GPE in a dose of 5 μg/Kg/day is administered via a surgically inserted shunt into the lateral cerebral ventricle of a human patient suffering from a head injury to promote weight gain to normal levels. Alternatively, a GPE analog is administered. Treatment is commenced as soon as possible after the head injury and then for 14 days thereafter.

[2] = Body weight gain over 14 days in rats after unilateral fimbria-fornix lesion with daily intracerebroventricular infusion; assay type: in vivo, male Wistar rats; conditions: lesioned rats; daily icv infusion of 2 μL for 14 days: GPE 3 μg/day, IGF-I 20 μg/day, NGF 1 μg/day
Description: A group of male Wistar rats weighing 174-193 g (University of Auckland, Animal Resources Unit) were divided randomly into the following groups: “control”, “sham”, “vehicle”, “GPE”, “IGF-I”, and “NGF”, depending on the treatment each animal was to undergo. “Control” animals were weighed at the first and last time points and were not treated or handled at any other time. “Sham” animals underwent a sham surgery of anesthesia, incision through the scalp skin, drill hole through the skull, bone wax to seal the drill hole, and sutures for the skin incision. They were then handled daily in mock infusions to mimic handling of animals that received lesions and intracerebroventricular infusions.
“Vehicle”, “GPE”, “IGF-I”, and “NGF” animals were anaesthetized with 75 mg/Kg sodium pentobarbital and positioned in a stereotaxic apparatus (Kopf Instruments, USA), and underwent unilateral fimbria-fomix lesions to lesion septal cholinergic neurons and chronic cannula implantation into the left lateral cerebral ventricle. Fomix-fimbria lesions were performed by transecting the fimbria-fornix projection using a specialized retractable wire Scouten knife (Kopf Instruments) designed to minimize tissue damage except at the required lesion site. Anaesthetized animals received an incision through their scalp skin and a small drill hole was made in the skull at the stereotaxic coordinates anterior-posterior (AP) axis−1.0 mm from the bregma and medial-lateral (ML) axis+2.5 mm from midline (left side), from an atlas of the rat brain (Paxinos et al. (1986), “The rat brain in stereotaxic coordinates”, Academic Press, London). The knife was lowered into the brain through the drill hole to the coordinate+6.0 mm ventral to the skull on the dorsal-ventral (DV) axis. The knife blade was then extended 2.5 mm toward midline at an angle of 30° caudal to the bregma. The knife, with blade extended, was then raised 4.5 mm dorsally to axotomize the fimbria-fomix fibres. The blade was then retracted, the knife lowered 4.5 mm to its original coordinate, and the process was repeated. […]

[3] = administered into the brain following transient ischemia to the forebrain, adult rats; cited from earlier work
[4] = infused in the brain of adult rats after partial or full lesions (e.g. partial fimbria-fornix transection); cited from earlier work

With `NCC(=O)N1CCC[C@H]1C(=O)N[C@@H](CCC(=O)O)C(=O)O` [GPE, glycyl-L-prolyl-L-glutamic acid] the “weight gain in patient” value ([1]; 5 μg/Kg/day via surgically inserted shunt into the lateral cerebral ventricle) was “Normal weight gain is promoted”, the “weight gain in patient” value ([1]; 10 μg/Kg/day via lateral cerebroventricular injection) was “Normal weight gain is promoted” and the “weight gain in patient” value ([1]; 20 μg/Kg/day via focal injection into the lateral cerebral ventricle) was “Normal weight gain is promoted”. For the same molecule, the “weight gain over the 14 days” value [2] was “the normally expected weight gain occurred”.

For “IGF-I: insulin-like growth factor I (IGF-I)”, the “effect on body weight” value [3] is given as “cause weight gain” and the “weight gain over the 14 days” value [2] is given as “minimal weight gain”.

In the case of NGF: Nerve growth factor (NGF), the “effect on body weight gain” value [4] is given as “either decrease normal body weight gain or cause weight loss” and the “weight gain over the 14 days” value [2] is given as “no weight gain”.

For “bFGF: basic fibroblast growth factor (bFGF)”, the “effect on body weight gain” value [4] is listed as “either decrease normal body weight gain or cause weight loss”.

B1: GDNF: glial-derived neurotrophic factor (GDNF) (protein, UniProt P39905 78-211, looked up)
Glial cell line-derived …: SPDKQMAVLPRRERNRQAAAANPENSRGKGRRGQRGKNRGCVLTAIHLNVTDLGLGYETKEELIFRYCSGSCDAAETTYDKILKNLSRNRRLVSDKVGQACCRPIAFDDDLSFLDDNLVYHILRKHSAKRCGCI
In the case of B1, the “effect on body weight gain” value [4] is given as “either decrease normal body weight gain or cause weight loss”.

B2: BDNF: brain-derived neurotrophic factor (BDNF) (protein, UniProt P23560 19-247, looked up)
Neurotrophic factor BDNF …: APMKEANIRGQGGLAYPGVRTHGTLESVNGPKAGSRGLTSLADTFEHVIEELLDEDQKVRPNEENNKDADLYTSRVMLSSQVPLEPPLLFLLEEYKNYLDAANMSMRVRRHSDPARRGELSVCDSISEWVTAADKKTAVDMSGGTVTVLEKVPVSKGQLKQYFYETKCNPMGYTKEGCRGIDKRHWNSQCRTTQSYVRALTMDSKKRIGWRFIRIDTSCVCTLTIKRGR
For B2, the “effect on body weight gain” value [4] is given as “either decrease normal body weight gain or cause weight loss”.
